Measurements published in publication PMC6005845 (Frontiers in Cardiovascular Medicine, 2018).

System: E-selectin
Assay: Plasma E-selectin ELISA
Type: in vivo, APOE*3Leiden.CETP mice
Settings: after 16 weeks of treatment
Excerpt: Pouwer et al Supplementary material […]
The inflammatory markers SAA, E-selectin and MCP-
according to the manufacturer’s instruction. […]

## Cc1cn(-c2cc(NC(=O)c3ccc(C)c(Nc4nccc(-c5cccnc5)n4)c3)cc(C(F)(F)F)c2)cn1 [Nilotinib, nilotinib]
10 mg/kg QD
  E-selectin: 79 ± 23 ng/mL
30 mg/kg QD
  E-selectin: 99 ± 17 ng/mL
